Measured values published in US20240261245A1, “METHODS OF TREATING CANCERS HAVING A DEREGULATED NRF2/KEAP1 PATHWAY” (New York University, priority 2017, published 2024).
Where a name gives a salt, the structure may show the parent alone. Read-outs that look alike come from different tables or passages of the source.

Columns and labels:
[1] = system: Nrf2; test: Western blot for Nrf2 after oxidative stress inducer DMF in isogenic KP/KPK cells; format: cell-based, mouse; settings: control (KP) cells; 6 hour DMF treatment
Source text: To perform in vitro functional characterization of and Keap1, isogenic cell lines were generated from a Kras^LSL-G12D/+; p53^−/− C57B6 GEMM-derived cell line using the CRISPR/Cas9 and sgRNAs against Keap1. LOF of the gene was validated by western blot analysis in basal conditions and in the presence of an oxidative stress inducer, dimethyl fumarate (DMF), which is known to deplete the cellular glutathione pool and induce Nrf2 activation (Sullivan et al., “The Proto-oncometabolite Fumarate Binds Glutathione to Amplify ROS-Dependent Signaling,” Molecular Cell 51:236-248 (2013), which is hereby incorporated by reference in its entirety). It was observed that Nrf2 is induced in control cells in response to 6 hour DMF treatment. Keap1 LOF leads to a robust increase of Nrf2 even in the absence of DMF (FIG. 13).

[2] = system: KPN cells; test: Viability of KPN (Nrf2 loss) cells under oxidative stress agents; format: cell-based, mouse; settings: KPN cells treated with oxidative stress agents (BSO, AUR, ERA)
Description: (§1) Cells were maintained in DMEM or RPMI supplemented with 10% Fetal Bovine Serum and gentamicin. Cell lines expressing rtTA were kept under Neomycin selection (400 ug/mL). Cell lines expressing dox inducible Nrf2 constructs remained under Hygromycin selection (600 ug/mL). […] Viability in the presence of all compounds was assessed by cell titer glo (Promega #G7570) and trypan blue exclusion on a Countess II automated cell counter (Life Technologies). For clonogenic and low-density assays, cells were stained with Crystal Violet solution (25% Methanol 75% H20). For cell counts after DMF treatment cells were fixed with 4% paraformaldehyde for 15 minutes at 4 C. Cells were then washed in ice cold PBS and then stained with Hoechst DNA stain. Plates were quantified using a Tecan infinite M200 Pro plate reader or a SpectraMax M5 Miroplate reader (Molecular Devices).

[3] = system: KPK cell lines; test: Viability/growth of KPK (Keap1 loss) cell lines compared to KP (cell titer glo, trypan blue, crystal violet); format: cell-based, mouse
Description: as §1

[4] = system: GPD2; settings: in vivo; cited from earlier work
[5] = intraperitoneal, 50 mg/kg daily over 30 days; cited from earlier work
[6] = system: Nrf2; settings: SFN 10 μM for 6 hr
Description: as §1
Cells were lysed in 250 μL ice-cold RIPA buffer (Pierce, #89900) supplemented with 1 × Complete Mini inhibitor mixture (Roche, #11 836 153 001) and mixed on a rotator at 4° C. for 30 minutes. The protein concentration of the cell lysates was quantified using the Bio-Rad DC Protein Assay (Catalog #500-0114). 50-80 μg of total protein was separated on 4-12% Bis-Tris gradient gels (Bio-Rad) by SDS-PAGE and then transferred to nitrocellulose membranes. […]
RNA was collected from cells as before (Papagiannakopoulos et al. (2016, Cell Metab 24, 324-331, doi:10.1016/j.cmet.2016.07.001) with RNeasy plus mini kit (Qiagen), sequenced with X analyzed with YZ. For Real Time qPCR analysis, complementary DNA (cDNA) was synthesized from RNA with the High Capacity cDNA Reverse Transcription Kit (Applied Biosystems #4368814). Genes Slc7a11, Gclc, Hmox1, and Nqo1 were analyzed by quantitative reverse transcription polymerase chain reaction on LightCycler 480 II (Roche). RT qPCR primers (Supplementary Sequences).

[7] = system: glutathione (GSH); test: Glutathione measurement (GSH/GSSG-Glo) after BSO; format: cell-based, mouse
Description: ROS in cultured cells were measured by incubating […] with 5 μM CM-H2DCFDA (C6827, Life Technologies) for 30 min at 37° C. DCF fluorescence was acquired on the Attune NxT (ThermoFisher) flow cytometer and analyzed using FlowJo software (Tree Star). Reduced (GSH) and oxidized glutathione (GSSG) was measured with a GSH/GSSG-Glo Assay kit (V6611, Promega) for the indicated amount of time.

[8] = system: KP, KPN and KPK cell lines; test: Viability of isogenic cell line panel treated with oxidative stress inducers (cell-titer glo); format: cell-based, mouse; settings: 72 hours of drug treatment
Description: as §1

[9] = system: KPN-ix cell lines; test: BSO dose response in KPN-ix cells with doxycycline inducible GOF-Nrf2; format: cell-based, mouse
Description: as §1

[10] = system: KP-ix cells; test: Viability counts of KP-ix cells (doxycycline inducible GOF-Nrf2) with CB-839; format: cell-based, mouse; settings: CB-839 250 nM, 72 hours
Description: as §1

[11] = system: KP-derived tumors; test: CB-839 treatment of KP-derived subcutaneous and orthotopic tumors in immunodeficient animals; format: in vivo, mouse; settings: subcutaneous and orthotopic transplants; 200 mg/kg CB-839 twice a day
Description: (§2) Animals were treated as before (Davidson et al. 2016, Cell Metab 23:517-528, doi: 10.1016/j.cmet.2016.01.007) with 200 mg/kg CB-839 or vehicle twice a day after tumor establishment phase. The vehicle contained 25% (w/v) hydroxypropyl-β-cyclodextrin in 10 mmol/L citrate (pH 2.0), and CB-839 was formulated at 20 mg/mL for a final dosing volume of 10 mL/kg.
(§3) It was next asked if increased glutamine utilization in KPK cell lines could be a druggable metabolic liability. […] Consistently, a panel of human lung cancer cells containing KEAP1 mutations or GOF mutations in NRF2 were sensitive to glutaminase inhibition while KEAP1 WT cells were largely resistant (FIG. 9C and FIG. 10B). […] To investigate the therapeutic potential of targeting glutaminase in Keap mutant tumors in vivo, KP and KPK cells were transplanted subcutaneously and orthotopically (lung) in immunodeficient animals. Once tumors had established, treatment was initiated with either vehicle or CB-839, an orally bioavailable glutaminase inhibitor in phase I clinical trials for KRAS mutant NSCLC (FIG. 9E).

[12] = system: KPK-derived subcutaneous and orthotopic tumors; test: CB-839 treatment of KPK-derived subcutaneous and orthotopic tumors in immunodeficient animals; format: in vivo, mouse
Description: as §2, §3

[13] = system: T cell; test: Impact of CB839 on T cell function (data not shown); format: cell-based

COC(=O)/C=C/C(=O)OC [DMF, Dimethyl fumarate]
Nrf2 induction (western blot) [1]: induced

Cc1c(C)c2c(c(C)c1O)CCC(C)(C(=O)O)O2 (stereo not shown) [Trolox]
rescue of loss of viability by antioxidants [2]: rescued

O=CC[C@@H](O)[C@H](O)[C@H](O)CO [2-deoxy-D-glucose]
sensitivity to glycolytic inhibitor ([3]; KPK compared to KP cells, 5 mM 2DG for 72 h): increased sensitivity

CN(C)C(=N)N=C(N)N [metformin]
GPD2 enzymatic activity [4]: inhibits
toxicity [5]: no toxicity

C[S+]([O-])CCCCN=C=S (racemic) [Sulforaphane, D,L-Sulforaphane]
Nrf2 protein levels and expression of target genes ([6]; KP cells): stabilized Nrf2 protein levels and expression of target genes
Nrf2 protein levels and expression of target genes ([6]; KP cells, listed as SFN): accumulation of Nrf2 occurs only in the KP samples
Nrf2 protein levels and expression of target genes ([6]; KPK or KPN cells, listed as SFN): not further stabilized

CCCCS(=N)(=O)CCC(N)C(=O)O [BSO, L-Buthionine-sulfoximine]
levels of GSH and viability ([7]; KPK compared to KP clones, 100 μM BSO): maintain measurable levels of GSH and viability
GSH pools ([7]; KPN clones, after 12 hours of BSO treatment (100 μM)): rapid exhaustion of GSH pools
reduced glutathione (GSH): oxidized glutathione (GSSG) ratio ([7]; panel of isogenic cell lines (KP, KPN, KPK)): stark contrast
genotype-specific sensitivity (cell viability) [8]: distinct genotype-specific sensitivities
BSO-mediated loss of viability upon induction of GOF-Nrf2 ([9]; 72 hours of dox induction): rescued
IC50 of BSO ([9]; KPN-ix +dox versus -dox, 72 hours): increase

CC(=O)N[C@@H](CS)C(=O)O [N-acetyl cysteine, N-acetyl-L-cysteine]
rescue of loss of viability by antioxidants [2]: rescued

CC(=O)OC[C@H]1O[C@@H]([S-])[C@H](OC(C)=O)[C@@H](OC(C)=O)[C@@H]1OC(C)=O.CCP(CC)CC.[Au+] [auranofin, Auranofin]
genotype-specific sensitivity (cell viability) [8]: distinct genotype-specific sensitivities

O=C(Cc1cccc(OC(F)(F)F)c1)Nc1ccc(CCCCc2nnc(NC(=O)Cc3ccccn3)s2)nn1 [CB-839]
sensitivity to CB-839 upon induction of GOF-Nrf2 [10]: robust sensitivity
tumor response to treatment [11]: no response
sensitivity to glutaminase inhibitors ([3]; KPK compared to KP cell lines, 72 hours): far more sensitive
final tumor weights ([12]; 200 mg/kg CB-839 twice a day versus vehicle): smaller final tumor weights
tumor growth over the course of the experiment ([12]; subcutaneous and orthotopic transplants, 200 mg/kg CB-839 twice a day): dramatic stunted growth
impact on T cell function [13]: does not negatively impact T cell function
